Experimental data published in the NIST ThermoML archive (doi:10.1016/j.jct.2014.02.016).

Tests used:
[1] = heat capacity at constant pressure per volume; xn = mol fraction of the nth substance listed; conditions: 100 kPa, Liquid, DSC Calorimetry, x1 = 0.244
[2] = refractive index (other wavelength) (dimensionless); xn = mol fraction of the nth substance listed; conditions: 100 kPa, Liquid, Wavelength=632.8 nm, Angle minimization by sell rotation

CCCCCCCCCCCCC [tridecane] + COC(=O)OC
[1]
Conditions | heat capacity [J/K/m3]
303.5 K | 2056000
303.6 K | 2019000
303.7 K | 1992000
303.8 K | 1969000
303.9 K | 1958000
304 K | 1946000
304.2 K | 1942000
304.6 K | 1920000
305 K | 1910000
306 K | 1891000
307 K | 1874000
308 K | 1870000
309 K | 1860000
310 K | 1850000
311 K | 1843000
312.1 K | 1839000
313 K | 1837000
315 K | 1830000
316 K | 1827000
317 K | 1825000
318 K | 1824000
319.01 K | 1821000
320 K | 1819000
321 K | 1817000
322 K | 1815000
323 K | 1816000
324 K | 1813000
325 K | 1812000
326 K | 1810000
327 K | 1809000
328 K | 1809000
329 K | 1808000
330 K | 1806000
331 K | 1805000
332 K | 1805000
333 K | 1804000
334 K | 1802000
335 K | 1801000
336 K | 1802000
337 K | 1801000
338 K | 1798000
339 K | 1797000
340 K | 1799000
341.01 K | 1798000
342 K | 1799000

[2]
Conditions | refractive index
293.35 K, x1 = 0.073 | 1.3756
293.35 K, x1 = 0.57 | 1.4085
294.57 K, x1 = 0.078 | 1.3756
294.57 K, x1 = 0.553 | 1.4072
295.8 K, x1 = 0.084 | 1.3756
295.8 K, x1 = 0.532 | 1.4057
296.97 K, x1 = 0.091 | 1.3757
296.97 K, x1 = 0.511 | 1.4042
298.06 K, x1 = 0.099 | 1.376
298.06 K, x1 = 0.492 | 1.4028
299.12 K, x1 = 0.108 | 1.3764
299.12 K, x1 = 0.467 | 1.4011
299.84 K, x1 = 0.115 | 1.3767
299.84 K, x1 = 0.452 | 1.4
300.52 K, x1 = 0.124 | 1.3772
300.52 K, x1 = 0.432 | 1.3987
301.09 K, x1 = 0.132 | 1.3777
301.09 K, x1 = 0.415 | 1.3975
301.5 K, x1 = 0.141 | 1.3783
301.5 K, x1 = 0.398 | 1.3964
301.8 K, x1 = 0.147 | 1.3787
301.8 K, x1 = 0.386 | 1.3956
302.21 K, x1 = 0.158 | 1.3795
302.21 K, x1 = 0.365 | 1.3942
302.36 K, x1 = 0.165 | 1.38
302.36 K, x1 = 0.356 | 1.3936
302.48 K, x1 = 0.17 | 1.3804
302.48 K, x1 = 0.348 | 1.3931
302.56 K, x1 = 0.176 | 1.3808
302.56 K, x1 = 0.341 | 1.3926
302.63 K, x1 = 0.18 | 1.3811
302.63 K, x1 = 0.335 | 1.3922
302.7 K, x1 = 0.184 | 1.3814
302.7 K, x1 = 0.329 | 1.3918
302.79 K, x1 = 0.191 | 1.382
302.79 K, x1 = 0.317 | 1.391
302.83 K, x1 = 0.195 | 1.3823
302.83 K, x1 = 0.311 | 1.3906
302.86 K, x1 = 0.202 | 1.3828
302.86 K, x1 = 0.303 | 1.3901
302.89 K, x1 = 0.206 | 1.3831
302.89 K, x1 = 0.297 | 1.3897
302.91 K, x1 = 0.211 | 1.3835
302.91 K, x1 = 0.291 | 1.3893
302.92 K, x1 = 0.214 | 1.3837
302.92 K, x1 = 0.289 | 1.3891
302.93 K, x1 = 0.218 | 1.384
302.93 K, x1 = 0.284 | 1.3888
302.94 K, x1 = 0.223 | 1.3844
302.94 K, x1 = 0.226 | 1.3846
302.94 K, x1 = 0.275 | 1.3882
302.94 K, x1 = 0.278 | 1.3884
304.39 K, x1 = 0.097 | 1.3728
304.39 K, x1 = 0.196 | 1.3818
304.39 K, x1 = 0.297 | 1.389
304.39 K, x1 = 0.401 | 1.3953
304.39 K, x1 = 0.497 | 1.4002
304.39 K, x1 = 0.583 | 1.404
304.39 K, x1 = 0.71 | 1.4094
304.39 K, x1 = 0.795 | 1.4126
304.39 K, x1 = 0.899 | 1.4163
